Tested on: 817829-284-R-J1-PDC complex spheroids, viability
Assay: Anticancer human tumor 817829-284-R-J1-PDC patient-derived colon adenocarcinoma cell line growth inhibition [CLK]
Conditions: for IC50: curve of first compound; for viability, T/C: stronger effect = lower value; active means viability on the fitted dose curve at most 10% of control; inactive means the rest
Excerpt: A high-throughput screen of multi-cell type tumor spheroids was designed to identify active combinations of […] and targeted small molecules. Complex spheroids include a stromal component modeled by human endothelial cells (HUVEC) and fibroblasts modeled by human mesenchymal stem cells (MSCs). The concentration ranges selected for each drug and investigational agent were based upon clinically achievable concentrations if the clinical Cmax of the agent was known.
Compounds. The drugs and investigational agents: cirtuvivint (SM08502; NSC835563), CC-671 (NSC850746), vemurafenib (NSC761431), tapotoclax (NSC804041), sotorasib (NSC818433), adagrasib (NSC831453), MRTX-1133 (NSC836407), BAY2416964 (NSC825713), copanlisib (NSC816437), inavolisib (NSC800729), abemaciclib (NSC768073), osimertinib (NSC779217), entinostat (NSC756642), eltanexor (KPT-8602, NSC794443), venetoclax (NSC766270), ceralasertib (NSC777638), bortezomib (NSC756655), olaparib (NSC753686), talazoparib (NSC767125), alisertib (NSC759677), peposertib (NSC802822), gemcitabine (NSC613327), 5-fluorouracil (NSC19893), SN-38 (NSC673596), oxaliplatin (NSC266046), paclitaxel (NSC125973), and doxorubicin (NSC123127), were obtained from the National Cancer Institute (NCI) Developmental Therapeutics Program Chemical Repository. The FDA-approved anticancer drug set is available from the Developmental Therapeutics Program at https://dtp.cancer.gov/organization/dscb/obtaining/available plates.htm. […] The stock solutions were prepared in dimethyl sulfoxide (DMSO, Sigma-Aldrich, St. Louis, MO, cat. D2650), except for the platinum complexes which were prepared in saline (Quality Biological, Gaithersburg, MD, cat. 114-055-101), at 800-fold the tested concentration and stored at -70 degrees C prior to their use. All drugs and investigational agents were tested over a range starting from a high concentration at or near the clinical Cmax and decreasing in half-log increments. If the clinical Cmax for an agent had not been determined, the highest concentration tested was 10 microM.
Cell Culture. All cells were maintained in an incubator at 37 degrees C and 5% CO2 with 95% humidity. The PDC lines were cultured according to standard operating procedures established by the NCI PDMR. Briefly, all PDCs were thawed and cultured in Matrigel-coated flasks prepared with a working solution of 1X Ham's F-12 nutrient mix, without supplementation (Invitrogen, Waltham, MA, cat. 11765054), 100 U/mL penicillin-streptomycin (Invitrogen, cat. 15140122), and 2.5% Matrigel (Corning Inc., Corning, NY, cat. 354248) for the first three passages. The 947758-054-R-J2-PDC line was cultured in 6B/Colon 1A media, which includes advanced DMEM/F-12 (Thermo Fisher Scientific, cat. 12634028), 10 mM HEPES (Thermo Fisher Scientific, cat. 15630080), 1X GlutaMAX supplement (Thermo Fisher Scientific, cat. 35050061), 0.1 mg/mL primocin (InvivoGen, cat. ant-pm-2), 10% defined fetal bovine serum, heat inactivated (HyClone Laboratories Inc., cat. SH30070.03HI), 1.25 mM N-Acetyl-L-cysteine (Sigma-Aldrich, cat. A9165), 10 mM nicotinamide (Sigma-Aldrich, cat. N0636), 1X B-27 supplement (Thermo Fisher Scientific, cat. 17504044), 1X N-2 supplement (Thermo Fisher Scientific, cat. 17502048), and 10 microM Y-27632 dihydrochloride (Tocris Bioscience, cat. 1254). The 876862-298-R-J1-PDC was cultured in 6E media, which includes all 6B/Colon 1A media components plus 50% L-WRN conditioned media (ATCC, cat. CRL-3276), 50 ng/mL recombinant human EGF recombinant protein (hEGF; Thermo Fisher Scientific, cat. PHG0311), 10 ng/mL recombinant human fibroblast growth factor 10 (hGFG-10; PeproTech, cat. 100-26), 1 ng/mL recombinant human fibroblast growth factor 2 (hFGF-2; PeproTech, cat. 100-18B), and 1 µM prostaglandin E2 (PGE2; Tocris, cat. 2296). The 227483-062-R1-J1-PDC line was cultured in Panc media, containing all 6E components except hFGF-2, with the addition of 500 nM SB-431542 (Selleckchem, cat. S1067) and 10 nM gastrin (Tocris, cat. 3006). […]

[1] = second compound 0.0316 µM, first compound 0.0316 µM
[2] = second compound 0.0316 µM, first compound 0.1 µM
[3] = second compound 0.0316 µM, first compound 0.316 µM
[4] = second compound 0.0316 µM, first compound 1 µM
[5] = second compound 0.0316 µM, first compound 3.16 µM
[6] = second compound 0.0316 µM, first compound 10 µM
[7] = second compound 0.1 µM, first compound 0.0316 µM
[8] = second compound 0.1 µM, first compound 0.1 µM
[9] = second compound 0.1 µM, first compound 0.316 µM
[10] = second compound 0.1 µM, first compound 1 µM
[11] = second compound 0.1 µM, first compound 3.16 µM
[12] = second compound 0.1 µM, first compound 10 µM
[13] = second compound 0.316 µM, first compound 0.0316 µM
[14] = second compound 0.316 µM, first compound 0.1 µM
[15] = second compound 0.316 µM, first compound 0.316 µM
[16] = second compound 0.316 µM, first compound 1 µM
[17] = second compound 0.316 µM, first compound 3.16 µM
[18] = second compound 0.316 µM, first compound 10 µM
[19] = second compound 1 µM, first compound 0.0316 µM
[20] = second compound 1 µM, first compound 0.1 µM
[21] = second compound 1 µM, first compound 0.316 µM
[22] = second compound 1 µM, first compound 1 µM
[23] = second compound 1 µM, first compound 3.16 µM
[24] = second compound 1 µM, first compound 10 µM
[25] = second compound 3.16 µM, first compound 0.0316 µM
[26] = second compound 3.16 µM, first compound 0.1 µM
[27] = second compound 3.16 µM, first compound 0.316 µM
[28] = second compound 3.16 µM, first compound 1 µM
[29] = second compound 3.16 µM, first compound 3.16 µM
[30] = second compound 3.16 µM, first compound 10 µM
[31] = second compound 10 µM, first compound 0.0316 µM
[32] = second compound 10 µM, first compound 0.1 µM
[33] = second compound 10 µM, first compound 0.316 µM
[34] = second compound 10 µM, first compound 1 µM
[35] = second compound 10 µM, first compound 3.16 µM
[36] = second compound 10 µM, first compound 10 µM
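Further: spheroids exposed to the agents for seven days before readout.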

CC(=O)O[C@H]1C(=O)[C@@]2(C)[C@H]([C@H](OC(=O)c3ccccc3)[C@]3(O)C[C@H](OC(=O)[C@H](O)[C@@H](NC(=O)c4ccccc4)c4ccccc4)C(C)=C1C3(C)C)[C@]1(OC(C)=O)CO[C@@H]1C[C@@H]2O + CN1CCN(c2cc(C(=O)Nc3cc4cc(-c5cnn(C)c5)ccc4cn3)ccn2)CC1
active: viability, T/C [1] 5.38% | viability, T/C [2] 5.12% | viability, T/C [3] 4.55% | viability, T/C [4] 4.77% | viability, T/C [5] 5.22% | viability, T/C [6] 5.27% | viability, T/C [7] 5.23% | viability, T/C [8] 4.54% | viability, T/C [9] 4.59% | viability, T/C [10] 4.02% | viability, T/C [11] 4.74% | viability, T/C [12] 5.63% | viability, T/C [13] 2.41% | viability, T/C [14] 2.26% | viability, T/C [15] 2.43% | viability, T/C [16] 2.04% | viability, T/C [17] 2.2% | viability, T/C [18] 2.45% | viability, T/C [19] 0.09% | viability, T/C [20] 0.1% | viability, T/C [21] 0.09% | viability, T/C [22] 0.07% | viability, T/C [23] 0.09% | viability, T/C [24] 0.11% | viability, T/C [25] 0.11% | viability, T/C [26] 0.14% | viability, T/C [27] 0.13% | viability, T/C [28] 0.16% | viability, T/C [29] 0.1% | viability, T/C [30] 0.14% | viability, T/C [31] 0.07% | viability, T/C [32] 0.1% | viability, T/C [33] 0.11% | viability, T/C [34] 0.09% | viability, T/C [35] 0.11% | viability, T/C [36] 0.12%
< 31.6 nM: IC50 (second compound 0.0316 µM) | IC50 (second compound 0.1 µM) | IC50 (second compound 0.316 µM) | IC50 (second compound 1 µM) | IC50 (second compound 3.16 µM) | IC50 (second compound 10 µM)

Nc1ccn(C2OC(CO)C(O)C2(F)F)c(=O)n1 (centres undefined) + CN1CCN(c2cc(C(=O)Nc3cc4cc(-c5cnn(C)c5)ccc4cn3)ccn2)CC1
active: viability, T/C [1] 4.65% | viability, T/C [2] 4.62% | viability, T/C [3] 3.63% | viability, T/C [4] 3.9% | viability, T/C [5] 3.03% | viability, T/C [6] 1.88% | viability, T/C [7] 3.65% | viability, T/C [8] 3.83% | viability, T/C [9] 3.7% | viability, T/C [10] 3.47% | viability, T/C [11] 3.1% | viability, T/C [12] 1.72% | viability, T/C [13] 1.66% | viability, T/C [14] 1.94% | viability, T/C [15] 1.74% | viability, T/C [16] 1.53% | viability, T/C [17] 1.54% | viability, T/C [18] 0.9% | viability, T/C [19] 0.14% | viability, T/C [20] 0.08% | viability, T/C [21] 0.09% | viability, T/C [22] 0.07% | viability, T/C [23] 0.14% | viability, T/C [24] 0.07% | viability, T/C [25] 0.11% | viability, T/C [26] 0.14% | viability, T/C [27] 0.17% | viability, T/C [28] 0.09% | viability, T/C [29] 0.11% | viability, T/C [30] 0.09% | viability, T/C [31] 0.05% | viability, T/C [32] 0.09% | viability, T/C [33] 0.09% | viability, T/C [34] 0.09% | viability, T/C [35] 0.11% | viability, T/C [36] 0.11%
< 31.6 nM: IC50 (second compound 0.0316 µM) | IC50 (second compound 0.1 µM) | IC50 (second compound 0.316 µM) | IC50 (second compound 1 µM) | IC50 (second compound 3.16 µM) | IC50 (second compound 10 µM)

Reference: PubChem BioAssay AID2060599 (Molecular Pharmacology Branch, DTP, NCI, 2025)
